Square brackets hold non-standard residues; d marks the D form. Peptide text beside a SMILES is read from it.
Assays:
MOR [1] = molecular target: MOR (Rattus norvegicus, UniProt P33535); assay: biochemical
KOR [2] = molecular target: KOR (Mus musculus, UniProt P33534); type: in vivo, C57Bl/6J mice; conditions: U50,488 10 mg/kg i.p.; 3 h pretreatment
opioid receptors = type: in vivo, C57Bl/6J mice
C57Bl/6J mice = type: in vivo
DOR = assay: Radioligand binding assay, cloned DOR in CHO cell membranes, [3H]DPDPE; conditions: read-out: Ki (nM ± SEM) DOR, mean ± SEM
KOR [3] = assay: Ligand-stimulated [35S]GTPγS binding assay, KOR expressing CHO cell membranes; type: biochemical; conditions: ratio of KB values
MOR [4] = type: binding; conditions: read-out: Ki (nM ± SEM) MOR; CHO membranes, [3H]DAMGO, mean ± SEM
KOR [5] = assay: Radioligand binding assay, cloned KOR in CHO cell membranes, [3H]diprenorphine; conditions: read-out: Ki (nM ± SEM) KOR, mean ± SEM

MOR (Rattus norvegicus, UniProt P33535), sequence (P33535 whole entry): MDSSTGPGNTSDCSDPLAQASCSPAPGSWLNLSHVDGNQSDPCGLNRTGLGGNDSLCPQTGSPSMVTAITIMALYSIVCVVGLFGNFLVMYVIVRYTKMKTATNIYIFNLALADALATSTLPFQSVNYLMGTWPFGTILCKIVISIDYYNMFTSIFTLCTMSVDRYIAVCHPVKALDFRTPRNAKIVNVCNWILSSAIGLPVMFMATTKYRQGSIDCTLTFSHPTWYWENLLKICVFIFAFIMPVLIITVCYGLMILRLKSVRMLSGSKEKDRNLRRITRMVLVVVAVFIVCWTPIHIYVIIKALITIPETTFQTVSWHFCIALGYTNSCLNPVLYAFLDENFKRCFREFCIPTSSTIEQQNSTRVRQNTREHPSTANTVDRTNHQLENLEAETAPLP
KOR (Mus musculus, UniProt P33534), sequence (P33534 whole entry): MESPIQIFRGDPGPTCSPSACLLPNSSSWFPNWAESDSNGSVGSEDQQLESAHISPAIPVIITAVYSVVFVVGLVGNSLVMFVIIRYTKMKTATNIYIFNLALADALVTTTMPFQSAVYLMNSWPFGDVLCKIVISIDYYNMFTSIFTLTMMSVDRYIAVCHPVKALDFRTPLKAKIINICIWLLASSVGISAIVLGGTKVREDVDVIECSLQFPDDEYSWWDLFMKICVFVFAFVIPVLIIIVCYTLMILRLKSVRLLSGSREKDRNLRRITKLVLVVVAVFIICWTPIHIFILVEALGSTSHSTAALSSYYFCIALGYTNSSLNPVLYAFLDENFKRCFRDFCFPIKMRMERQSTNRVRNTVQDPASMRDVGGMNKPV

**Q.** How did the Kb (MOR [1]) turn out when `C[C@@H]1NC(=O)[C@H](Cc2c[nH]c3ccccc23)NC(=O)[C@H](Cc2ccccc2)NC(=O)[C@H]2CCCN2C1=O` [Peptide 2, cyclo[Ala-DPro-Phe-Trp]] (cyclo(A[dP]FW)) was run?
**A.** Its Kb is 7.3 ± 1.6 nM.

**Q.** And the “KOR antagonist potency in vivo compared with parent peptide 1” value (KOR [2])?
**A.** Its value is “somewhat more potent”.

**Q.** And the “Effect of naloxone pretreatment on peptide antinociception” value (opioid receptors; naloxone 15 nmol i.c.v., 25 min prior, peptides 2 (3 nmol), 3 (10 nmol), 4 (0.3 nmol), 5 (30 nmol) i.c.v.)?
**A.** The value was “significantly antagonized”.

**Q.** What about the “Reduction of antinociceptive activity by nor-BNI pretreatment” value (opioid receptors; nor-BNI 10 mg/kg i.p., did not reach statistical significance) of the same compound?
**A.** Its value is greater than 30%.

**Q.** What about the “Time of peak antinociceptive response” value (C57Bl/6J mice; after i.c.v. administration) of the same compound?
**A.** Its value is 30 min.

**Q.** And the “ED50 (and 95% confidence interval), antinociception” value (C57Bl/6J mice; i.c.v., at peak response, C57Bl/6J mice)?
**A.** Its value is 1.49 (0.39-7.41) nmol.

**Q.** What about the Ki (DOR) of the same compound?
**A.** The Ki was 8680 ± 1270 nM.

**Q.** What about the “KOR antagonist potency relative to parent peptide 1 (more potent)” value (KOR [3]) of the same compound?
**A.** Its value is 25 fold.

**Q.** What about the Ki (MOR [4]) of the same compound?
**A.** The Ki was 32.1 ± 3.9 nM.

**Q.** What about the Ki (KOR [5]) of the same compound?
**A.** Its Ki is 8.03 ± 1.67 nM.

From PMC3667675 (ChemMedChem, 2011)
